# Test results reported in publication PMC4738305, “Metabolism and Disposition of Aditoprim in Swine, Broilers, Carp and Rats” (Scientific Reports, 2016).
# Key:
# [1] = Concentration and elimination of ADP and its metabolites in liver, kidney, muscle, fat/skin after oral ^3H-ADP for 7 d; format: in vivo, swine; details: swine, oral, 5 mg/kg b.w.
# Experimental: (§1) A total of 36 animals from each species (swine n = 24) were randomly assigned to six equal treatment groups and administered a single daily dose of ^3 H-ADP at 5 mg/kg b. w. (0.1 Ci/g) through oral gavage for 7 consecutive days. All the animals were housed on the basis of their group in the cages or aquaria throughout the whole study period. A group of animals was slaughtered through exsanguination under diethyl ether inhalation of anesthesia in the period of 6 h, 1, 3, 7, 14, and 21 d after the administration. The blood samples were immediately collected into the heparinized tubes and was centrifuged at 1920 × g at 4 °C for 10 min to obtain the plasma. The tissues from the heart, liver, spleen, lung, kidney, craw (broilers), stomach, intestine, fat, skin, muscle, thymus, pancreas, bile, bladder, hair (scale for carp), genital gland, adrenal glands, swim bladder (carp), brain, lymph, and bursa (broilers) were carefully excised and collected. The tissues were thoroughly rinsed with the deionized water to remove the residuary blood, blotted to dryness, and finally to perform the homogenization. In order to avoid cross-contamination the dissecting instruments were washed during the tissue procurements. The blank tissues were collected in order to provide control matrices. The total radioactivity levels in each sample were determined through LSC. The samples extracted from the plasma, bile, and tissues of the liver, kidney, muscle, and fat/skin were analyzed through LC/MS-IT-TOF and v. ARC radiometric detection for metabolite profiling. The blank samples were used as control to determine the background radioactivity or the endogenous nondrug-related ions observed within respective matrices or their extracts.
# (§2) The feces and tissues (2 g) were diluted with a mixture of methanol and chloroform (1:3, v:v; 2 mL/g homogenate). This procedure was carried out in a fume hood for the safety aspects. The pH value was adjusted to 9.0 with NH4OH. The mixture was vortexed and sonicated for 5 min and 10 min, respectively, and finally the samples were centrifuged at 7690 × g for 10 min. The supernatant was aspirated and then transferred into a new centrifuge tube. The obtained pellet was again subjected to the same process of vortex, ultrasonication, extraction, and centrifugation. The combined supernatant was concentrated under a stream of nitrogen in a water bath at 40 °C. The residue was reconstituted with 0.3 mL of methanol–water (1:9, v:v) before the injection into the LC-v. ARC/MS-IT-TOF system for analysis.
# (§3) ADP and its metabolites in the prepared samples were determined with a v. ARC radiometric detector and a hybrid IT/TOF mass spectrometer connected to the HPLC system (Shimadzu Corp., Kyoto, Japan). The LC system was equipped with a solvent delivery pump (LC-20AD), an auto-sampler (SIL-20AC), a degasser (DGU-20 A 3), a photodiode array detector (SPD-M20A), a communication base module (CBM-20 A), and a column oven (CTO-20AC). The chromatographic separation was achieved by using an Agilent extend-C18 column (2.1 mm × 150 mm, 5 μm) with a gradient mobile phase of A (0.01% ammonia and 5 mM ammonium acetate in water) and B (methanol) at a flow rate of 0.2 mL/min. The column temperature was maintained at 35 °C. Various HPLC methods were performed because of the large number of different metabolites to be analyzed. For the porcine sample, method 1 started at 5% B and increased to 20% B over 35 min, then to 55% B by 60 min, followed by re-equilibration for another 10 min. For the remaining samples, method 2 started at 10% B and increased to 60% B over 30 min, subsequently was maintained at 60% B for an additional 10 min, and then changed to 90% B over 2 min and maintained for 2 min. Afterwards, a re-equilibration step (decreased to 10% B over 1 min and maintained at 10% B for additional 9 min) was followed. For each matrix, more than 98% of the radioactivity injected into the column was eluted during the running time of the gradient program. […]
# [2] = Metabolite profiling of ADP in excreta, plasma and bile (LC-v.ARC/MS-IT-TOF); format: in vivo, swine; details: for percentage of the individual metabolite compared with the total concentration of ADP-related: within 6 h after dosing; for Average percentage of ADP and its metabolites in total dose: Swine, Urine, single oral 5 mg/kg b.w. ^3H-ADP
# Experimental: (§4) Animals (4 swine, 6 broilers, 6 carp, and 3 male and 3 female rats) were housed individually in clean, suspended wire-mesh metabolism cages, designed to separate the urine from the feces (carp were raised in individual aquaria). Each animal was weighed and assigned with a permanent identification number. A single dose of ^3 H-ADP (5 mg/kg b. w., 0.1 Ci/g) was administered via the oral gavage. Excreta were collected on ice at the pre-administration, in the period of 6, 12, and 24 h on day 1 d, and afterwards, intermittently in the period of 24 h up to 14 d. The piscine excreta were collected by changing and collecting raised water. The total volume or weight of each sample was measured and homogenized. The total radioactivity levels were determined through LSC for the recovery calculations. After the preparation, the samples were analyzed through LC/MS-IT-TOF with v. ARC radiometric detection (XenoBioticLaboratories, Inc.) for metabolite profiling. The pretreatment samples were used as controls to determine the background radioactivity or the endogenous nondrug-related ions observed within respective matrices or their extracts.
# as §1
# (§5) For metabolite profiling, the urine and feces samples from each animals were pooled proportionally to the excreted amount in each sampling period from 0 to 6 h, 6 h to 1 d, 1 to 3 d, 3 to 7 d, and 7 to 14 d post-dose, respectively. All samples were fully homogenized before the process. The pre-dose and blank samples served as the controls for determining the background radioactivity or the endogenous, nondrug-related ions observed within respective matrices or their extracts.
# (§6) The urine samples (plasma, bile and raised water for carp) was subjected to solid-phase extraction with an Oasis MCX cartridge (3 mL, […]; Waters, Milford, MA, USA) for metabolite purification and enrichment. The pH value was adjusted to 2.8–3.2 by adding 1 M hydrochloric acid (HCl), and 2 mL of the sample was transferred into MCX cartridge, which was preconditioned with 3 mL of methanol and 3 mL of 0.1 mol/L HCl solution. The cartridge was washed with 3 mL of 0.1 mol/L HCl solution and was eluted with 5 mL of NH4OH/methanol (4:96, v:v). The effluent was concentrated to dryness under a stream of nitrogen at 40 °C. […]
# [3] = as above; format: in vivo, broilers
# Experimental: as §4, §1, §5, §6
# [4] = Concentration and elimination of ADP and its metabolites in liver, kidney, muscle, fat/skin after oral ^3H-ADP for 7 d; format: in vivo, broilers; details: broiler chicken, kidney, oral, 5 mg/kg b.w.
# Experimental: as §1, §2, §3
# [5] = as above; format: in vivo, rats; details: rat, liver, oral, 5 mg/kg b. w.
# Experimental: as §1, §2, §3
# [6] = Metabolite profiling of ADP in excreta, plasma and bile (LC-v.ARC/MS-IT-TOF); format: in vivo, rats
# Experimental: as §4, §1, §5, §6
# [7] = rats, within 3 d; cited from earlier work
Compound,concentration at 0.25 d ([1]; liver),percentage of the individual metabolite compared with the total concentration of ADP-related ([2]; Swine Urine),Average percentage of ADP and its metabolites in total dose [2],"percentage of the individual metabolite compared with the total concentration of ADP-related ([3]; Broilers Extra (excreta), within 6 h after dosing)","Average percentage of ADP and its metabolites in total dose ([3]; Broilers, Excreta, single oral 5 mg/kg b.w. ^3H-ADP)",concentration at 0.25 d [4],concentration at 0.25 d ([1]; kidney),concentration at 1 d ([1]; kidney),concentration at 1 d ([1]; liver),percentage of the individual metabolite compared with the total concentration of ADP-related ([2]; Swine Plasma),concentration at 0.25 d [5],"Average percentage of ADP and its metabolites in total dose ([6]; Rat, Urine, single oral 5 mg/kg b.w. ^3H-ADP)","percentage of the individual metabolite compared with the total concentration of ADP-related ([6]; Rats Urine, within 6 h after dosing)",oral dose recovered [7]
"COc1cc(C(O)c2cnc(N)nc2N)cc(OC)c1N(C)C (stereo not drawn) [A8, α-OH-ADP]",20 ng/g,1.4%,1.0%,–,–,–,–,–,–,–,–,–,–,–
"COc1cc(Cc2cnc(N)nc2N)cc(O)c1N(C)C [A3, 3-OH-ADP]",940 ± 170 ng/g,9.7%,5.4%,3.5%,6.4%,110 ± 90 ng/g,–,–,–,–,–,–,–,–
"CNc1c(O)cc(C(O)c2cnc(N)nc2N)cc1OC (stereo not shown) [A4, 3-OH-4-methylamino-ADP]",320 ± 30 ng/g,4.8%,3.1%,–,–,–,520 ± 80 ng/g,480 ± 260 ng/g,270 ± 40 ng/g,4.6%,–,–,–,–
"COc1cc(C(O)c2cnc(N)nc2N)cc(O)c1N(C)C (stereo not drawn) [A6, 3-OH-α-OH-ADP]",360 ± 40 ng/g,6.4%,3.7%,–,–,–,690 ± 100 ng/g,60 ± 30 ng/g,–,3.8%,10 ± 10 ng/g,0.5%,3.1%,–
"COc1cc(Cc2cnc(N)nc2N)cc(OC)c1OC [TMP, trimethoprim]",–,–,–,–,–,–,–,–,–,–,–,–,–,more than 95 % of the oral dose
"CNc1c(O)cc(Cc2cnc(N)nc2N)cc1OC [A7, 4-methylamino-3-OH-ADP]",790 ± 170 ng/g,1.9%,1.8%,–,–,–,–,–,450 ± 90 ng/g,–,–,–,–,–
"CNc1c(OC)cc(C(O)c2cnc(N)nc2N)cc1OC (stereo not drawn) [A5, 4-methylamino-α-OH-ADP]",430 ± 40 ng/g,1.2%,1.9%,–,–,–,710 ± 110 ng/g,270 ± 150 ng/g,260 ± 40 ng/g,1.6%,–,–,–,–
